Measured values published in patent US20240327385A1, “SUBSTITUTED PIPERIDINE COMPOUNDS AS RENIN INHIBITORS” (priority 2023, published 2024).

molecular target: human recombinant renin (Homo sapiens (Human), UniProt P00797); test: human renin activity inhibition (SensoLyte 520 Renin Assay Kit Fluorimetric); assay type: biochemical; details: 30 min preincubation at 37° C., fluorescence at 530 nm after 15 min at 37° C., read-out: IC50 (nM), inhibitory effect on human renin activity
Protocol: The exemplary compounds of the disclosure were tested for their inhibitory effects on human renin activity, using a commercially available renin assay kit (SensoLyte® 520 Renin Assay Kit Fluorimetric), following the manufacture's manual.
Briefly, human recombinant renin (from the kit) was incubated with the compound of the disclosure or buffer for 30 min at 37° C. before substrate addition. Fluorescence intensity was measured at 530 nm after an incubation of 15 min at 37° C. Data was analyzed by Prism and fitted into a sigmodal curve for IC50 calculation.

Chain of human recombinant renin (P00797 67-406): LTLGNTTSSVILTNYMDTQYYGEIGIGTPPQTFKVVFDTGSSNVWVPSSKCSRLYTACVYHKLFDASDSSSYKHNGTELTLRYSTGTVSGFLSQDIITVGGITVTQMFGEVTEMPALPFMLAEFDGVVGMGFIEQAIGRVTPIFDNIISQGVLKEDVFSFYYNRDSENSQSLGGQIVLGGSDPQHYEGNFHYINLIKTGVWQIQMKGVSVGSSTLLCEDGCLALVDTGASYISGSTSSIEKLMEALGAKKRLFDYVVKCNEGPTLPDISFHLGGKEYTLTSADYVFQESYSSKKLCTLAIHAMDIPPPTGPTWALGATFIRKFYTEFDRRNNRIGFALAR

SMILES | IC50 [nM]
CO[C@H]1C[C@H](Nc2cc(C3CC3)cnc2C(=O)N(CC(C)C)C2CNC[C@H](c3nnc(C4CC(F)(F)C4)o3)C2)C1 (stereo partly drawn) [Compound 24, (3S)—{N-(2-methylpropyl), N-{5-cyclopropyl-3-[3-(trans-methoxy)cyclobutyl]amino}pyridine-2-carbonyl}amino-(5R)-(3,3-diflurorocyclobutyl-1,3,4-oxadiazol-2-yl)-piperidine] | 1
CC(C)CN(C(=O)c1ncc(C2CC2)cc1NC1COC1)[C@@H]1CNCC(c2nnc(C3CC3)o2)C1 (stereo partly drawn) [Compound 32, (3S)—{N-(2-methylpropyl), N-[5-cyclopropyl-3-(oxetan-3-yl)amino]pyridine-2-carbonyl}amino-(5R)-(5-cyclopropyl-1,3,4-oxadiazol-2-yl)-piperidine] | < 10
CO[C@H]1C[C@H](Nc2cc(C3CC3)cnc2C(=O)N(CC(C)C)[C@@H]2CNC[C@H](c3ncon3)C2)C1 [Compound 39, (3S)—{N-(2-methylpropyl), N-{5-cyclopropyl-3-[3-(trans-methoxy)cyclobutyl]amino}pyridine-2-carbonyl}amino-(5R)-(1,2,4-oxadiazol-3-yl)-piperidine] | < 10
Cc1noc(C2CNC[C@@H](N(CC(C)C)C(=O)c3ncc(C4CC4)cc3NC3COC3)C2)n1 (stereo in doubt) [Compound 38, (3S)—{N-(2-methylpropyl), N-[5-cyclopropyl-3-(oxetan-3-yl)amino]pyridine-2-carbonyl}amino-(5R)-(3-methyl-1,2,4-oxadiazol-5-yl)-piperidine] | < 50
CO[C@H]1C[C@H](Nc2cc(C3CC3)cnc2C(=O)N(CC(C)C)C2CNC[C@H](c3nnc(C4CC4)o3)C2)C1 (stereo partly drawn) [Compound 23, (3S)—{N-(2-methylpropyl), N-{5-cyclopropyl-3-[3-(trans-methoxy)cyclobutyl]amino}pyridine-2-carbonyl}amino-(5R)-(5-cyclopropyl-1,3,4-oxadiazol-2-yl)-piperidine] | 1.2

Now from value to molecule:

IC50 [nM] | SMILES
1.4 | CC(C)CN(C(=O)c1ncc(C2CC2)cc1NC1CC1)C1CNCC(C(=O)N2CCOC[C@@H]2C)C1 (stereo partly drawn) [Compound 21, (3S)—[N-(2-methylpropyl), N-(5-cyclopropyl-3-cyclopropylamino)pyridine-2-carbonyl]amino-(5R)-[(3S)-methylmorpholine-N-carbonyl]-piperidine]
1.8 | CO[C@H]1C[C@H](Nc2cc(C3CC3)cnc2C(=O)N(CC(C)C)[C@@H]2CNC[C@H](C(=O)N3CC(F)C3)C2)C1 [Compound 10, (3S)—{N-(2-methylpropyl), N-{5-cyclopropyl-3-[3-(trans-methoxy)cyclobutyl]amino}pyridine-2-carbonyl}amino-(5R)-(3-fluoroazetidine-N-carbonyl)-piperidine]
3.8 | CO[C@H]1C[C@H](Nc2cc(C3CC3)cnc2C(=O)N(CC(C)C)C2CNCC(C(=O)N3CCC(OC(F)(F)F)CC3)C2)C1 (stereo partly drawn) [Compound 13, (3S)—{N-(2-methylpropyl), N-{5-cyclopropyl-3-[3-(trans-methoxy)cyclobutyl]amino}pyridine-2-carbonyl}amino-(5R)-(4-trifluoromethoxypiperidine-N-carbonyl)-piperidine]
1.6 | CO[C@H]1C[C@H](Nc2cc(C3CC3)cnc2C(=O)N(CC(C)C)C2CNCC(C(=O)N3CCC(F)(F)CC3)C2)C1 (stereo partly drawn) [Compound 12, (3S)—{N-(2-methylpropyl), N-{5-cyclopropyl-3-[3-(trans-methoxy)cyclobutyl]amino}pyridine-2-carbonyl}amino-(5R)-(4,4-difluoropiperidine-N-carbonyl)-piperidine]
